The target of test [1] is T1, Prostaglandin G/H synthase 2 (Homo sapiens, UniProt P35354).
T1 sequence (P35354 whole entry): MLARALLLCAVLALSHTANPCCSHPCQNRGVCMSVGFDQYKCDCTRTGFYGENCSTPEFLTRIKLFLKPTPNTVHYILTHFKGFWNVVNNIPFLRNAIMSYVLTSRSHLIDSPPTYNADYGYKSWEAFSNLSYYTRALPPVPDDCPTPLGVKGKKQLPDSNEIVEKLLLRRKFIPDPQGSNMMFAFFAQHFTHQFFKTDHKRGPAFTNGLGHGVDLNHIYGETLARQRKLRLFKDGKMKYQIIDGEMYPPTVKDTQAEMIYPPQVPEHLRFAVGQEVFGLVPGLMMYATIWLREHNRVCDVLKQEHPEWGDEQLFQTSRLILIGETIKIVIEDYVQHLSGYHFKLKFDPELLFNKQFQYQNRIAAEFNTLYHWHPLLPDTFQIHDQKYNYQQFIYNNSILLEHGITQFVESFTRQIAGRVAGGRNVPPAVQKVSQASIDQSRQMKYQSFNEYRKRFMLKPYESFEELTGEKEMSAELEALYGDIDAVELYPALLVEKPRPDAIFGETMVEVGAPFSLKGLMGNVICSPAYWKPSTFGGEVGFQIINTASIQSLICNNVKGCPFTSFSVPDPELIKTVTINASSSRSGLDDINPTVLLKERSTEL
The test can be described thus: Inhibition of COX-2 (unknown origin) by spectrophotometer assay.

Another test has as its target Alpha-glucosidase (Saccharomyces cerevisiae S288c, UniProt P53341+P38158+P07265). The test can be described thus: Inhibition of yeast alpha-glucosidase using PNP-G as substrate preincubated for 10 mins followed by substrate addition by spectrophotometer microplate reader assay. In kind it is protein assay.
Test [2] has as its target T2, Tyrosine-protein phosphatase non-receptor type 1 (Homo sapiens, UniProt P18031).
T2 sequence (P18031 whole entry): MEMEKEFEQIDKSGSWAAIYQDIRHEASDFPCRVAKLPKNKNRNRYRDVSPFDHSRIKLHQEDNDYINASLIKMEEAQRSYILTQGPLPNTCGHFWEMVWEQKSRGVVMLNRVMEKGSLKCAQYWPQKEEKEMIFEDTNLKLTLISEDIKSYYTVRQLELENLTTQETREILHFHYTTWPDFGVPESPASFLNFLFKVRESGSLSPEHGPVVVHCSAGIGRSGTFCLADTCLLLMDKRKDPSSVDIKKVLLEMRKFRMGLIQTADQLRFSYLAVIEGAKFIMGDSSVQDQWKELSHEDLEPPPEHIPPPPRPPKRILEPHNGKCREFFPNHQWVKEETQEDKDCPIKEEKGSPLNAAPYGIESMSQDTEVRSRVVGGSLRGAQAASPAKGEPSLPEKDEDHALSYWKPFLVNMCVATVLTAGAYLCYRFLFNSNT
The test can be described thus: Inhibition of human recombinant GST-tagged PTP1B (1 to 321 residues) expressed in Escherichia coli using pNPP as substrate preincubated for 10 mins followed by substrate addition and measured after 30 mins by microplate reader assay.

Molecules are shown by their SMILES.

For the compound `CC(=O)c1cc2cc(-c3cccc(Cl)c3)oc2cc1O`, the IC50 in test [1] was 2.81 µM; against Alpha-glucosidase it was 0.11 µM; in test [2], 17.8 µM.

For orientation: IC50 means the concentration that gives 50% inhibition.

(Values after ChEMBL document CHEMBL5244260, “Aldose reductase and protein tyrosine phosphatase 1B inhibitors as a promising therapeutic approach for diabetes mellitus” (Eur J Med Chem, 2020).)
